Here are results for 44 compounds from ChEMBL document CHEMBL5385887, “Discovery of Sibiriline derivatives as novel receptor-interacting protein kinase 1 inhibitors” (Eur J Med Chem, 2023).

The test system of one data set is L929. Nature of the data set: Anti-necroptosis activity against TNFalpha/z-VAD-fmk-induced mouse L929 cell necroptosis model assessed as cell viability pretreated with compound for 1 hr followed by treated with TZ for 6 hrs. The format is functional, cell-based.
The target of data set [1] is T1, Receptor-interacting serine/threonine-protein kinase 1 (Homo sapiens, UniProt Q13546).
T1 sequence (Q13546 whole entry): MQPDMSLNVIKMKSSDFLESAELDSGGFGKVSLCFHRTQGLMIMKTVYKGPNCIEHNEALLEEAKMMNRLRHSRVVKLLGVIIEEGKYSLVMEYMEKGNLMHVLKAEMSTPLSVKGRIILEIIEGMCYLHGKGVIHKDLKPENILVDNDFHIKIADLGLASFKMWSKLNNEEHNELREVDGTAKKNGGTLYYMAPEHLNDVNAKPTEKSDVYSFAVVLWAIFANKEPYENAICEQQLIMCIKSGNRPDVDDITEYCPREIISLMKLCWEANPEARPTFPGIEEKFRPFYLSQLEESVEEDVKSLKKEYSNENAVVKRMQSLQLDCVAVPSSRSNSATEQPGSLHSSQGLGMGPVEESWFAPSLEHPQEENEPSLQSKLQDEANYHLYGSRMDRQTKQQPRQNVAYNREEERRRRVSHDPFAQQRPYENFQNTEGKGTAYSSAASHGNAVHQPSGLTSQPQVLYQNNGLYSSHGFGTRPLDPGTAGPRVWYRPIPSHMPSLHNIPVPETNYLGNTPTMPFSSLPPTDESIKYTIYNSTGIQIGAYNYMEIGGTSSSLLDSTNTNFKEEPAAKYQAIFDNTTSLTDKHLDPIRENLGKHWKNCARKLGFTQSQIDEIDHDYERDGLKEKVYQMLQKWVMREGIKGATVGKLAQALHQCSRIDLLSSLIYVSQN
Description: Inhibition of RIPK1 (unknown origin) using MBP substrate incubated for 2 hrs by ADP-Glo kinase function assay. On the technique in general: In ADP-Glo the light output rises with the ADP produced.

Data set [2] in a line: Cytotoxicity against mouse L929 cells by CCK-8 assay. Format: toxicity, cell-based.
The subject of another data set is HT-29. Nature of the data set: Anti-necroptosis activity against TS-induced human HT-29 cell necroptosis model assessed as cell viability at 0.039 to 10 uM pretreated with compound for 1 hr followed by treated with TS for 12 hrs. The note with it: dose 0.039-10 µM. The format is functional, cell-based.
For another data set, the system named is Mus musculus. Description: In vivo anti-necroptotic effect in TNFalpha-induced systemic inflammatory response syndrome C57BL/6J mouse model assessed as reduction in hypothermic injury by measuring increase in survival at 10 mg/kg, ip followed by compound treatment after 1 hr injected moue TNFalpha and measured continuously upto 72 hrs. The format is functional. The note with it: time 73 hrs.

Broadly, the EC50 is the concentration at which the effect is half-maximal. As a reminder, the IC50 is the concentration that inhibits the measured activity by half. The term CC50 denotes the concentration at which the toxic effect on the cells reaches its halfway point. Higher therefore signals better tolerance by the cells.

Calls of active or inactive are those of the source. The rule behind the calls is not given here.

For `NC(=O)c1ccc(-c2cc3cccnc3[nH]2)cc1`, in the data set on L929, the EC50 amounted to 90 nM. This compound registered an IC50 in data set [1] of 110 nM. In data set [2], this compound showed a CC50 of more than 50000 nM.
As to `Oc1ccc2ccc(-c3cc4cccnc4[nH]3)cc2c1`, the EC50 in the data set on L929 is 1420 nM. The compound further came in with an IC50 in data set [1] of 2600 nM. In data set [2], the CC50 was more than 50000 nM.
Regarding `Oc1ccc(-c2cnc3nccnc3c2)cc1`, in the data set on L929, the EC50 is more than 10000 nM. In data set [2], the CC50 was more than 50000 nM.
With `CC(C)N(C(=O)c1ccc(-c2cc3cccnc3[nH]2)cc1)C(C)C`, in the data set on L929, the EC50 came to 190 nM. In addition, the IC50 in data set [1] came out at 130 nM. This compound also registered a 50% cytotoxic concentration (CC50) in data set [2] of more than 50000 nM.
Regarding `CCCNC(=O)c1ccc(-c2cc3cccnc3[nH]2)cc1`, the EC50 in the data set on L929 turned out to be 810 nM. For the same compound, in data set [1], it took 630 nM to reach half-maximal inhibition (IC50). Further, in data set [2], the half-maximal cytotoxic concentration (CC50) was more than 50000 nM.
Turning to `c1cnc2[nH]c(-c3ccc4c(c3)CCCO4)cc2c1`, the EC50 in the data set with L929 turned out to be 890 nM. In data set [1], this compound yielded an IC50 of 1180 nM. In addition, the CC50 in data set [2] was more than 50000 nM.
The matching figures for `OCCc1ccc(-c2cc3cccnc3[nH]2)cc1`: 300 nM, 230 nM and more than 50000 nM.
Turning to `Oc1cccc(-c2cnc3[nH]ccc3c2)c1`, the EC50 in the data set with L929 was more than 10000 nM. The same compound returned a CC50 in data set [2] of more than 50000 nM.
On to `CC(C)(C)NC(=O)c1ccc(-c2cc3cccnc3[nH]2)cc1`, for which the EC50 in the data set on L929 came to 170 nM. Further, the IC50 in data set [1] was 90 nM. Besides, in data set [2], the CC50 was more than 50000 nM.
The matching figures for `Oc1ccc(-c2cc3cccnc3[nH]2)cc1Cl`: 5140 nM, 3870 nM and more than 50000 nM.
The matching figures for `OCc1ccc(-c2cc3cccnc3[nH]2)cc1`: 140 nM, 170 nM and more than 50000 nM.
The matching figures for `CNC(=O)c1ccc(-c2cc3cccnc3[nH]2)cc1`: 95 nM, 93 nM and more than 50000 nM.
As for `CC(C)(C)Oc1ccc(-c2cnc3[nH]ccc3c2)cc1`, the EC50 with L929 was more than 10000 nM. For the same compound, the CC50 in data set [2] was more than 20000 nM.
The corresponding values for `Oc1ccc(-c2ccc3cc[nH]c3n2)cc1` are more than 10000 nM and more than 50000 nM.
For `Oc1ccc(-c2cc3cccnc3[nH]2)cc1F`, in the data set on L929, the EC50 was 1180 nM. Moreover, 2560 nM corresponded to half-maximal inhibition in data set [1] (IC50). This compound also displayed a CC50 in data set [2] of more than 50000 nM.
In the case of `CCNC(=O)c1ccc(-c2cc3cccnc3[nH]2)cc1`, the EC50 with L929 was 240 nM. In data set [1], the IC50 is 180 nM. Besides, the CC50 in data set [2] is more than 50000 nM.
With `O=C(c1ccc(-c2cc3cccnc3[nH]2)cc1)N1CCNCC1`, the EC50 in the data set with L929 is 90 nM. In addition, in data set [1], inhibition was half-maximal at 100 nM (IC50). In addition, the CC50 in data set [2] is more than 50000 nM.
For the compound `Oc1ccc(-c2cc3cccnc3[nH]2)cc1`, the EC50 in the data set with L929 turned out to be 1310 nM. The same compound gave a CC50 in data set [2] of more than 50000 nM. Besides, the outcome in the data set on HT-29 was inactive.
On to `O/N=C/c1ccc(-c2cnc3[nH]ccc3c2)cc1`, for which, in the data set on L929, the EC50 was 4270 nM. Moreover, the concentration for half-maximal inhibition (IC50) in data set [1] turned out to be 3660 nM. In data set [2], the CC50 was more than 20000 nM.
In the case of `Oc1ccccc1-c1cnc2[nH]ccc2c1`, the EC50 in the data set with L929 is more than 10000 nM. Further, the CC50 in data set [2] is more than 50000 nM.
As to `Oc1ccc(-c2cnc3[nH]cnc3c2)cc1`, in the data set with L929, the EC50 was more than 10000 nM. This compound also displayed a CC50 in data set [2] of more than 50000 nM.
With `N#Cc1ccc(-c2cnc3[nH]ccc3c2)cc1`, the EC50 in the data set on L929 was determined as 1850 nM. The compound also showed an IC50 in data set [1] of 1170 nM. In data set [2], this compound had a CC50 of more than 50000 nM.
On to `Oc1ccc(-c2ccnc3[nH]ccc23)cc1`, for which the EC50 in the data set on L929 was more than 10000 nM. The CC50 in data set [2] is more than 50000 nM.
For the compound `COc1ccc(-c2cc3ccc[nH]c-3n2)cc1`, in the data set with L929, the EC50 stood at 150 nM. This compound also came in with an IC50 in data set [1] of 90 nM. Moreover, in data set [2], the CC50 is more than 50000 nM.
On to `CC(C)NC(=O)c1ccc(-c2cc3cccnc3[nH]2)cc1`, for which the EC50 in the data set with L929 is 810 nM. The compound further came in with an IC50 in data set [1] of 500 nM. In addition, the CC50 in data set [2] was more than 50000 nM.
The corresponding values for `COc1cc(-c2cc3cccnc3[nH]2)ccc1O` are 140 nM, 120 nM and more than 50000 nM.
For `Oc1cccc(-c2cc3cccnc3[nH]2)c1`, in the data set on L929, the concentration giving a half-maximal response (EC50) is 1230 nM. The same compound had an IC50 in data set [1] of 1080 nM. Also, the CC50 in data set [2] was more than 50000 nM.
On to `Oc1ccc(-c2cnc3[nH]ccc3n2)cc1`, for which the EC50 in the data set with L929 stood at 5100 nM. Moreover, in data set [1], the concentration for half-maximal inhibition (IC50) is 4860 nM. For the same compound, the CC50 in data set [2] was more than 50000 nM.
As for `c1ccc(Oc2ccc(-c3cc4cccnc4[nH]3)cc2)cc1`, in the data set with L929, the EC50 came out at 7540 nM. This compound also came in with an IC50 in data set [1] of 9000 nM. The CC50 in data set [2] is more than 50000 nM.
For the compound `NC(=O)c1ccc(-c2cnc3[nH]ccc3c2)cc1`, the EC50 in the data set with L929 worked out at 710 nM. Further, in data set [1], the IC50 was determined as 170 nM. In addition, the CC50 in data set [2] is more than 50000 nM.
Turning to `O=C(NC1CC1)c1ccc(-c2cc3cccnc3[nH]2)cc1`, the EC50 with L929 was 190 nM. Half-maximal inhibition in data set [1] (IC50) required 200 nM. The CC50 in data set [2] was more than 50000 nM.
For the compound `Nc1ccc(-c2cc3cccnc3[nH]2)cc1`, in the data set on L929, the EC50 was found to be 270 nM. Also, in data set [1], the IC50 worked out at 240 nM. The 50% cytotoxic concentration (CC50) in data set [2] is more than 50000 nM.
The matching figures for `Oc1ccc(-c2ccc(-c3cc4cccnc4[nH]3)cc2)cc1`: 350 nM, 230 nM and more than 10000 nM.
For the compound `c1cnc2[nH]c(-c3ccc4ncsc4c3)cc2c1`, the EC50 in the data set on L929 is 340 nM. In data set [1], this compound gave an IC50 of 350 nM. The CC50 in data set [2] is more than 50000 nM.
On to `CN1C(=O)C(Cc2c[nH]c3ccccc23)NC1=S` (stereo unspecified) [NECROSTATIN], for which the survival at 10 mg/kg with Mus musculus was 25%.
As for `Oc1ccc(-c2cnc3[nH]ccc3c2)cc1`, in the data set with L929, the EC50 came to 1470 nM. The compound further registered an IC50 in data set [1] of 1090 nM. In addition, the CC50 in data set [2] is more than 50000 nM.
The corresponding values for `CC(C)(C)Oc1ccc(-c2cc3cccnc3[nH]2)cc1` are 170 nM, 220 nM and more than 50000 nM.
In the case of `Oc1ccccc1-c1cc2cccnc2[nH]1`, in the data set with L929, the EC50 amounted to 1140 nM. In data set [1], this compound displayed an IC50 of 950 nM. In addition, the CC50 in data set [2] was more than 50000 nM.
In the case of `O/N=C/c1ccc(-c2cc3cccnc3[nH]2)cc1`, the EC50 in the data set with L929 is 670 nM. This compound returned an IC50 in data set [1] of 270 nM. Also, the CC50 in data set [2] was more than 50000 nM.
On to `c1ccc(Oc2ccccc2-c2cnc3[nH]ccc3c2)cc1`, for which the EC50 with L929 is more than 10000 nM. Besides, the CC50 in data set [2] was more than 20000 nM.
Consider `Oc1ccc(-c2c[nH]c3ncccc23)cc1`, for which the EC50 in the data set with L929 is more than 10000 nM. The same compound returned a half-maximal cytotoxic concentration (CC50) in data set [2] of more than 50000 nM.
For `O=C(c1ccc(-c2cc3cccnc3[nH]2)cc1)N1CCCC1`, the EC50 with L929 was 260 nM. Moreover, in data set [1], the IC50 is 140 nM. Besides, the CC50 in data set [2] was more than 50000 nM.
Consider `CN1CCN(C(=O)c2ccc(-c3cc4cccnc4[nH]3)cc2)CC1`, for which the EC50 in the data set with L929 worked out at 60 nM. This compound also gave an IC50 in data set [1] of 100 nM. This compound also showed a CC50 in data set [2] of more than 20000 nM.
For the compound `O=C(c1ccc(-c2cc3cccnc3[nH]2)cc1)N1CCCCC1`, the EC50 with L929 was 130 nM. Also, the midpoint of inhibition in data set [1], the IC50, lay at 120 nM. Besides, the CC50 in data set [2] is more than 50000 nM.
